Measurements taken from patent US20060052341A1, “Control of a biological function” (priority 2002, published 2006).
Read-outs that look alike come from different tables or passages of the source. One block for each compound: values may come before it.

What was measured:
[1] = in vivo; settings: female, cattle
Text: In the urine, up to 30% of an administered dose appears as a conjugate of glucuronic acid and pregnanediol.

[2] = rat, in vivo; cited from earlier work
[3] = cited from earlier work
[4] = system: dairy cows; settings: seven hundred and thirty seven dairy cows, three years; cited from earlier work
[5] = system: cattle; test: Luteolysis studies with intravaginal sodium cloprostenol; type: in vivo
Method: In effecting the desired delivery regime for the present invention as directed to use in controlling bestrus in cattle, a number of studies were conducted. […] There is no reliable blood test for sodium cloprostenol. The best test is to assess the success of luteolysis following application of sodium cloprostenol.

[6] = Serum oestradiol after intravaginal release of oestradiol 17β/cyclodextrin tablets; oestradiol half life; type: in vivo, cattle
Method: However, oestradiol benzoate is only one of the preferred oestrogen component of the present invention.
For the purpose of the present invention as exampled via the control of oestrus in cattle, release of oestrogen tablets into the vagina was carefully timed and recorded. […] A 1 mg dose produced maximum mean values of 130-180 pg/ml at 100-130 minutes after treatment, while a 2 mg dose led to maxima of 180 to >250 pg at 120-150 minutes.
A 1 mg dose produced maximum mean values of 130-180 pg/ml at 100-130 minutes after treatment, while a 2 mg dose led to maxima of 180 to >250 pg at 120-150 minutes, as illustrated in FIG. 11.

[7] = prior art, cited from earlier work
[8] = treated cows; cited from earlier work
[9] = 24 mg controlled release implants, non-pregnant heifers; cited from earlier work
[10] = within 6 hours of ingesting 1.5 g, human subjects; cited from earlier work
[11] = 1 mg oestradiol benzoate by intramuscular injection
[12] = vaginal administration of 10 mg oestradiol benzoate
[13] = 1 mg dose, intravaginal tablet with cyclodextrin carrier
[14] = 7.2 mg oestradiol 17β intravaginally

Structure (SMILES): CC(=O)[C@H]1CC[C@H]2[C@@H]3CCC4=CC(=O)CC[C@]4(C)[C@H]3CC[C@]12C [progesterone]
half-life [1]: ~20 min | LD100 [2]: 327.1 mg/kg | half-life of progesterone in blood ([3]; in vivo): only a few minutes

Structure (SMILES): O=C(O)CCC/C=C\CC1C(O)CC(O)C1/C=C/C(O)COc1cccc(Cl)c1 (stereo not drawn) [sodium cloprostenol, cloprostenol sodium]
side effects on subsequent fertility [4]: no chronic side effects on subsequent fertility | response to treatment compared with prior art intramuscular injection of prostaglandin alone ([5]; HPβCD carrier, increased dose rate): equivalent response | luteolytic effect ([5]; intravaginal, without a suitable carrier, at the level dosed): not having a complete luteolic effect | luteolytic effect ([5]; same dose administered with HPβCD): incomplete luteolysis

half life ([6]; bovine, in vivo): longer than two to three minutes
Structure (SMILES): C[C@]12CC[C@@H]3c4ccc(OC(=O)c5ccccc5)cc4CC[C@H]3[C@@H]1CC[C@@H]2O [oestradiol benzoate, oestra-1,3,5 (10)-triene-3,17β-diol 3-benzoate]
peak plasma oestradiol concentration [7, 11]: 8 to 13 pg/mL | time of peak plasma oestradiol [7, 11]: approximately 2 hours | peak plasma oestradiol concentration [7, 12]: 2 to 5 pg/mL | time of peak plasma oestradiol [7, 12]: 2 to 48 h

maximum mean serum oestradiol [6, 13]: 130 to 180 pg/mL | time of maximum serum oestradiol after treatment [6, 13]: 100 to 130 min | time of maxima of serum oestradiol ([6]; 2 mg dose, intravaginal tablet with cyclodextrin carrier): 120 to 150 min | time for serum oestradiol to reach peak values from basal levels ([6]; intravaginal oestrogen tablets): 2 to 3 h | half life ([6]; oestradiol without the benzoate component): only a few minutes
Structure (SMILES): C[C@]12CC[C@@H]3c4ccc(O)cc4CC[C@H]3[C@@H]1CC[C@@H]2O [oestradiol 17β, oestra-1,3,5 (10)-triene-3,17β-diol]
peak plasma oestradiol concentration ([7]; 7.2 mg oestradiol 17β intravaginally with cyclodextrin): 10 to 20 pg/mL | duration of elevated plasma levels [7, 14]: at least 24 hours | time of peak plasma oestradiol [7, 14]: four

Structure (SMILES): CCCCC[C@H](O)/C=C/[C@@H]1[C@@H](C/C=C\CCCC(=O)O)[C@@H](O)C[C@H]1O [prostaglandin PGF2α, prostaglandin F2α]
half-life in the blood [8]: three | half-life ([3]; rapid breakdown): a few minutes

Structure (SMILES): C[C@]12CC[C@@H]3c4ccc(O)cc4CC[C@H]3[C@@H]1CC[C@@H]2O [oestradiol]
oestrogen levels in tissues of slaughtered animals [9]: not significantly different from untreated animals

Structure (SMILES): OCc1ccccc1 [benzyl alcohol]
dose eliminated in the urine as hippuric acid [10]: 75% to 85%
